Data: patent publication US20160176867A1, “MODIFIED BET-PROTEIN-INHIBITING DIHYDROQUINOXALINONES AND DIHYDROPYRIDOPYRAZINONES” (BAYER PHARMA AKTIENGESELLSCHAFT, priority 2013, published 2016)

Legend:
[1] = biological target: T1, BRD4 bromo domain 2 [BRD4(2)] (Homo sapiens, UniProt O60885); test: BRD4/acetylated peptide H4 binding assay (TR-FRET), BRD4 bromo domain 2; details: inhibition of BRD4(2)/Ac-H4 peptide interaction
T1 construct: N-terminally His6-tagged BRD4(2) (amino acids 357-445); made in house; host or cells: E. coli
Outline: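 Binding of His6-BRD4(2) (aa 357-445, 100 nM final) to biotinylated tetra-acetylated H4 peptide read by TR-FRET (665/620 nm). Compound preincubated 10 min at 22 °C, then 1 h at 22 °C plus ≥3 h at 4 °C. Eleven concentrations (0.1 nM–20 μM) in duplicate; IC50 by 4-parameter fit.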

MOLP-8 cells = test: Cell proliferation assay (alamarBlue), MOLP-8; format: cell-based; details: Homo sapiens; MOLP-8 (multiple myeloma), 120 hours
Protocol: (§1) In accordance with the invention, the ability of the substances to inhibit cell proliferation was determined. Cell viability was determined by means of the alamarBlue® reagent (Invitrogen) in a Victor X3 Multilabel Reader (Perkin Elmer). The excitation wavelength was 530 nm and the emission wavelength […].
The MOLP-8 cells (DSMZ, ACC 569) were sown at a concentration of 4000 cells/well in 100 μl of growth medium (RPMI1640, 20% FCS) on 96-well microtitre plates.
(§2) After overnight incubation at 37° C., the fluorescence values were determined (CI values). Then the plates were treated with various substance dilutions (1E-5 M, 3E-6 M, 1E-6 M, 3E-7 M, 1E-7 M, 3E-8 M, 1E-8 M) and incubated at 37° C. over 96 hours (MOLM-13, B16F10, CHL-1 cells) or 120 hours (MOLP-8 cells). Subsequently, the fluorescence values were determined (CO values). For the data analysis, the CI values were subtracted from the CO values and the results were compared between cells which had been treated with various dilutions of the substance or only with buffer solution. The IC50 values (substance concentration needed for 50% inhibition of cell proliferation) were calculated therefrom.

B16F10 cells = test: Cell proliferation assay (alamarBlue), B16F10; format: cell-based; details: Mus musculus, B16-F10; B16F10 (melanoma, BRAF wild-type), 96 hours
Protocol: as §1
The B16F10 cells (ATCC, CRL-6475) were sown at a concentration of 300-500 cells/well in 100 μl of growth medium (DMEM with phenol red, 10% FCS) on 96-well microtitre plates.
as §2

SMILES | IC50 [1] | IC50 (MOLP-8 cells) | IC50 (B16F10 cells)
COCCN1c2nc(Nc3cccc(S(=O)(=O)N4CCOCC4)c3)ccc2N(C)C(=O)C1C (racemic) [Example 49, 4-(2-methoxyethyl)-1,3-dimethyl-6-{[3-(morpholin-4-ylsulphonyl)phenyl]amino}-3,4-dihydropyrido[2,3-b]pyrazin-2(1H)-one] | 159 nM | 163 nM | 399 nM
COCCN1c2nc(Nc3cccc(S(=O)(=O)N4CCN(C)CC4)c3)ccc2N(C)C(=O)C1C (racemic) [Example 53, 4-(2-methoxyethyl)-1,3-dimethyl-6-({3-[(4-methylpiperazin-1-yl)sulphonyl]phenyl}-amino)-3,4-dihydropyrido-[2,3-b]pyrazin-2(1H)-one] | 186 nM | 365 nM | 1300 nM
CC1C(=O)N(C)c2ccc(Nc3cccc(C(=O)NC4CCN(C)CC4)c3)nc2N1c1ccccc1 (racemic) [Example 104, 3-[(1,3-dimethyl-2-oxo-4-phenyl-1,2,3.4-tetrahydropyrido[2,3-b]pyrazin-6-yl)amino]-A-(1-methylpiperidin-4-yl)benzamide] | 471 nM | 826 nM | 2430 nM
COCCN1c2nc(Nc3cccc(S(=O)(=O)N4CCOCC4)c3)ccc2N(C)C(=O)[C@H]1C (stereo in doubt) [Example 111, (3R)-4-(2-methoxyethyl)-1,3-dimethyl-6-{[3-(morpholin-4-ylsulphonyl)phenyl]amino}-3,4-dihydropyrido[2,3-b]pyrazin-2(1H)-one] | 115 nM | 106 nM | 316 nM
C[C@@H]1C(=O)N(C)c2ccc(Nc3cccc(C(=O)N4CCN(C)CC4)c3)nc2N1C1CCCC1 [Example 1, (3R)-4-Cyclopentyl-1,3-dimethyl-6-({3-[(4-methylpiperazin-1-yl)carbonyl]phenyl}amino)-3,4-dihydropyrido[2,3-b]pyrazin-2(1H)-one] | 55 nM | 337 nM | 661 nM
C[C@@H]1C(=O)N(C)c2ccc(Nc3cccc(C(=O)NC4CCN(C)CC4)c3)nc2N1C1CCCC1 [Example 2, 3-{[(3R)-4-Cyclopentyl-1,3-dimethyl-2-oxo-1,2,3,4-tetrahydropyrido[2,3-b]pyrazin-6-yl]amino}-N-(1-methylpiperidin-4-yl)benzamide] | 89 nM | 114 nM | 442 nM
C[C@@H]1C(=O)N(C)c2ccc(Nc3cccc(C(=O)NC4CN(C)C4)c3)nc2N1C1CCCC1 [Example 3, 3-{[(3R)-4-Cyclopentyl-1,3-dimethyl-2-oxo-1,2,3,4-tetrahydropyrido[2,3-b]pyrazin-6-yl]amino}-N-(1-methylazetidin-3-yl)benzamide] | 91 nM | 187 nM | 695 nM
C[C@@H]1C(=O)N(C)c2ccc(Nc3cccc(C(=O)NCCN(C)C)c3)nc2N1C1CCCC1 [Example 4, 3-{[(3R)-4-Cyclopentyl-1,3-dimethyl-2-oxo-1,2,3,4-tetrahydropyrido[2,3-b]pyrazin-6-yl]amino}-N-[2-(dimethylamino)ethyl]benzamide] | 101 nM | 249 nM | 778 nM
C[C@@H]1C(=O)N(C)c2ccc(Nc3cccc(C(=O)N[C@H]4CC[C@H](N5CCN(CC6CC6)CC5)CC4)c3)nc2N1C1CCCC1 [Example 5, 3-{[(3R)-4-Cyclopentyl-1,3-dimethyl-2-oxo-1,2,3,4-tetrahydropyrido[2,3-b]pyrazin-6-yl]amino}-N-{trans-4-[4-(cyclopropylmethyl)piperazin-1-yl]cyclohexyl}benzamide] | 59 nM | 136 nM | 506 nM
C[C@@H]1C(=O)N(C)c2ccc(Nc3cccc(S(=O)(=O)N(C)C)c3)nc2N1C1CCOCC1 [Example 6, 3-{[(3R)-1,3-Dimethyl-2-oxo-4-(tetrahydro-2H-pyran-4-yl)-1,2,3,4-tetrahydropyrido[2,3-b]pyrazin-6-yl]amino}-N,N-dimethylbenzenesulphonamide] | 32 nM | 37 nM | 71 nM
C[C@@H]1C(=O)N(C)c2ccc(Nc3cccc(S(=O)(=O)N(C)C)c3)cc2N1C1CCOCC1 [Example 7, 3-{[(3R)-1,3-Dimethyl-2-oxo-4-(tetrahydro-2H-pyran-4-yl)-1,2,3,4-tetrahydroguinoxalin-6-yl]amino}-N,N-dimethylbenzenesulphonamide] | 71 nM | – | 178 nM
C[C@@H]1C(=O)N(C)c2ccc(Nc3cccc(S(=O)(=O)N4CCOCC4)c3)cc2N1C1CCOCC1 [Example 8, (3R)-1,3-Dimethyl-6-{[3-(morpholin-4-ylsulphonyl)phenyl]amino}-4-(tetrahydro-2H-pyran-4-yl)-3,4-dihydroquinoxalin-2(1H)-one] | 89 nM | – | 258 nM
C[C@@H]1C(=O)N(C)c2ccc(Nc3cccc(S(=O)(=O)N4CCOCC4)c3)nc2N1C1CCOCC1 [Example 9, (3R)-1,3-Dimethyl-6-{[3-(morpholin-4-ylsulphonyl)phenyl]amino}-4-(tetrahydro-2H-pyran-4-yl)-3,4-dihydropyrido[2,3-b]pyrazin-2(1H)-one] | 54 nM | 40 nM | 78 nM
COc1ccc(CN2c3cc(Nc4cccc(S(=O)(=O)N(C)C)c4)ccc3N(C)C(=O)[C@H]2C)cc1 [Example 10, 3-{[(3R)-4-(4-Methoxybenzyl)-1,3-dimethyl-2-oxo-1,2,3,4-tetrahydroquinoxalin-6-yl]amino}-N,N-dimethylbenzenesulphonamide] | 62 nM | 82 nM | 122 nM
C[C@@H]1C(=O)N(C)c2ccc(Nc3cccc(S(=O)(=O)N4CCN(C)CC4)c3)nc2N1C1CCOCC1 [Example 12, (3R)-1,3-Dimethyl-6-({3-[(4-methylpiperazin-1-yl)sulphonyl]phenyl}amino)-4-(tetrahydro-2H-pyran-4-yl)-3,4-dihydropyrido[2,3-b]pyrazin-2(1H)-one] | 68 nM | 126 nM | 544 nM
C[C@@H]1C(=O)N(C)c2ccc(Nc3cccc(C(=O)NC4CCN(C)CC4)c3)nc2N1C1CCOCC1 [Example 13, 3-{[(3R)-1,3-Dimethyl-2-oxo-4-(tetrahydro-2H-pyran-4-yl)-1,2,3,4-tetrahydropyrido[2,3-b]pyrazin-6-yl]amino}-N-(1-methylpiperidin-4-yl)benzamide] | 218 nM | 306 nM | 840 nM
C[C@@H]1C(=O)N(C)c2ccc(Nc3cccc(C(=O)N[C@H]4CC[C@H](N5CCN(CC6CC6)CC5)CC4)c3)nc2N1C1CCOCC1 [Example 14, N-{trans-4-[4-(Cyclopropylmethyl)piperazin-1-yl]cyclohexyl}-3-{[(3R)-1,3-dimethyl-2-oxo-4-(tetrahydro-2H-pyran-4-yl)-1,2,3,4-tetrahydropyrido[2,3-b]pyrazin-6-yl]amino}benzamide] | 170 nM | 240 nM | 809 nM
C[C@@H]1C(=O)N(C)c2ccc(Nc3cccc(C(=O)N4CCN(C)CC4)c3)nc2N1C1CCOCC1 [Example 15, (3R)-1,3-Dimethyl-6-({3-[(4-methylpiperazin-1-yl)carbonyl]phenyl}amino)-4-(tetrahydro-2H-pyran-4-yl)-3,4-dihydropyrido[2,3-b]pyrazin-2(1H)-one] | 196 nM | 313 nM | 1080 nM
